# From ChEMBL document CHEMBL5465560, “Selectivity Literature for EUbOPEN Chemogenomic Library” (2024)
# Columns and labels:
# [1] = system: Tyrosine-protein kinase ABL1 (Homo sapiens), P00519 [T315I]; experiment: (§1) Selectivity interaction (KinomeScan (DiscoverX)) EUB0001079a ABL1; conditions: at 1 µM
# [2] = system: Tyrosine-protein kinase ABL1 (Homo sapiens), P00519 [F317I]; experiment: as §1; conditions: at 1 µM
# [3] = system: Tyrosine-protein kinase ABL1 (Homo sapiens), P00519 [Q252H]; experiment: as §1; conditions: at 1 µM
# [4] = system: Tyrosine-protein kinase ABL1 (Homo sapiens), P00519 [F317L]; experiment: as §1; conditions: at 1 µM
# [5] = system: Tyrosine-protein kinase ABL1 (Homo sapiens), P00519 [E255K]; experiment: as §1; conditions: at 1 µM
# [6] = system: Tyrosine-protein kinase ABL1 (Homo sapiens), P00519 [M351T]; experiment: as §1; conditions: at 1 µM
# [7] = system: Epidermal growth factor receptor (Homo sapiens), P00533 [L861Q]; conditions: at 10 µM
# [8] = biological target: Serine/threonine-protein kinase PLK3 (Homo sapiens, UniProt Q9H4B4); experiment: Selectivity interaction (KinomeScan (DiscoverX)) EUB0001049a PLK3; conditions: at 1 µM
# [9] = biological target: Fibroblast growth factor receptor 1 (Homo sapiens, UniProt P11362); experiment: Selectivity interaction (KinomeScan (DiscoverX)) EUB0001049a FGFR1; conditions: at 1 µM
# [10] = biological target: Mitogen-activated protein kinase 9 (Homo sapiens, UniProt P45984); experiment: Selectivity interaction (KinomeScan (DiscoverX)) EUB0001619a MAPK9; conditions: at 1 µM
# [11] = biological target: T1, Dual specificity protein kinase TTK (Homo sapiens) (UniProt P33981); experiment: Selectivity interaction (Kinase panel (DSF assay)) EUB0001558a TTK
# T1 sequence (whole entry): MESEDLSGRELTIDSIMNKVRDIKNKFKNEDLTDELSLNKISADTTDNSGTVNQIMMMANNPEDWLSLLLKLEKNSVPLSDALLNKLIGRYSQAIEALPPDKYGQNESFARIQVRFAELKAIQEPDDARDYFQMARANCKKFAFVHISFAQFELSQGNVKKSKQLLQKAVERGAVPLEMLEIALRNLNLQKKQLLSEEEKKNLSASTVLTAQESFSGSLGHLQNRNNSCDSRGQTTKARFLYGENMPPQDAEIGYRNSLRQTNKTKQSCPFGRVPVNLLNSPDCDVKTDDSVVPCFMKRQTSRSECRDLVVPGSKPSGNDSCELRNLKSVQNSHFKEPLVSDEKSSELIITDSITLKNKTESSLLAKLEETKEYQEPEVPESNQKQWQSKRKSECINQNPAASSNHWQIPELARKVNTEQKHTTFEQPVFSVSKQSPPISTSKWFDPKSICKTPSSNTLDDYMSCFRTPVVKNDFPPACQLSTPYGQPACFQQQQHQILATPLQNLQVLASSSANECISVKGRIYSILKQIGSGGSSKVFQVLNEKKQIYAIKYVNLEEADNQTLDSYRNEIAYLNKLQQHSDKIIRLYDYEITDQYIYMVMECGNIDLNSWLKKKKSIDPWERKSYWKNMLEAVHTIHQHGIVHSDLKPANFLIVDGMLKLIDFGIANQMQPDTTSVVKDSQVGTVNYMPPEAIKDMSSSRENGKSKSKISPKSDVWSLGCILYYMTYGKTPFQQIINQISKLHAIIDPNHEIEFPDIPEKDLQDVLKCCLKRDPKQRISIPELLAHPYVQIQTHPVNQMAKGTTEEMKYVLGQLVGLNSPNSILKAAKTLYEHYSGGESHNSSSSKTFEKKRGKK
# [12] = biological target: Serine/threonine-protein kinase 38-like (Homo sapiens) (UniProt Q9Y2H1); experiment: Selectivity interaction (KinomeScan (DiscoverX)) EUB0000618a STK38L; conditions: at 10 µM
# [13] = biological target: 5'-AMP-activated protein kinase catalytic subunit alpha-2 (Homo sapiens) (UniProt P54646); experiment: Selectivity interaction (ActivX KiNativ screen (kinase selectivity in THP-1 cell lysates)) EUB0000639a PRKAA2; assay type: subcellular; conditions: lysate
# [14] = system: Epidermal growth factor receptor (Homo sapiens), P00533 [UNDEFINED MUTATION]; experiment: Selectivity interaction (KinomeScan (DiscoverX)) EUB0000092b EGFR; conditions: at 10 µM
# [15] = biological target: Serine/threonine-protein kinase 24 (Homo sapiens) (UniProt Q9Y6E0); experiment: Selectivity interaction (KinomeScan (DiscoverX)) EUB0000092b STK24; conditions: at 10 µM
# [16] = biological target: Aurora kinase B (Homo sapiens, UniProt Q96GD4); experiment: Selectivity interaction (Ambit KINOMEscan and KiNATiv profiling in Jurkat cells) EUB0000090b AURKB; assay type: cell-based; conditions: at 1 µM
# [17] = biological target: T2, Serine/threonine-protein kinase ULK1 (Homo sapiens) (UniProt O75385); experiment: Selectivity interaction (Ambit KINOMEscan and KiNATiv profiling in Jurkat cells) EUB0000090b ULK1; assay type: cell-based; conditions: at 1 µM
# T2 sequence (whole entry): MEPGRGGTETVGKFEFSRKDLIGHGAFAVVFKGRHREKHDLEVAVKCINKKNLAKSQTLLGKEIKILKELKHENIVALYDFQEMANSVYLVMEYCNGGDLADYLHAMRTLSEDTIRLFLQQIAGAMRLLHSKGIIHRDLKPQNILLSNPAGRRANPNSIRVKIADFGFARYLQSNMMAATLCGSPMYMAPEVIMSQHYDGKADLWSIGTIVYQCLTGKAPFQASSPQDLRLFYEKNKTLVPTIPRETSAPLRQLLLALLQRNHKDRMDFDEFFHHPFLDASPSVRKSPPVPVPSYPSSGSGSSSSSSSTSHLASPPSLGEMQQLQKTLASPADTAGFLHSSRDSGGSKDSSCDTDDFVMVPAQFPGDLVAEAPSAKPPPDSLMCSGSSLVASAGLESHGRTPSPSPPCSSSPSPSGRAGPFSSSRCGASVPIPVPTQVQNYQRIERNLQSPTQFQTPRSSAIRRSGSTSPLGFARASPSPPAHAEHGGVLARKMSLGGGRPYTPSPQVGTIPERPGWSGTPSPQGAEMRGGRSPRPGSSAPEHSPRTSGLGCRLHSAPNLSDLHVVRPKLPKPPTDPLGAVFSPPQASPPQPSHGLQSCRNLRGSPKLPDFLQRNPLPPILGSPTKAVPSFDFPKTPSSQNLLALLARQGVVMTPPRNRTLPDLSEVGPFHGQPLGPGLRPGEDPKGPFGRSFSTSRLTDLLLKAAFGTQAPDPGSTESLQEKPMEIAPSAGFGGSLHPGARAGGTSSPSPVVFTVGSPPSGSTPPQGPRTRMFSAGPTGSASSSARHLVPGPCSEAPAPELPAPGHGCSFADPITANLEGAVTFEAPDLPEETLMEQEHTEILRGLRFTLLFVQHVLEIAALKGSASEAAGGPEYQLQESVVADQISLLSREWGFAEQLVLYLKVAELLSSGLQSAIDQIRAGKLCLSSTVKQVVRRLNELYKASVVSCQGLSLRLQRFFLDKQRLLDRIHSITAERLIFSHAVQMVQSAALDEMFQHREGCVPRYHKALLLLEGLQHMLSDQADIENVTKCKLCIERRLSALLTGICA
# Chain of 5'-AMP-activated protein kinase catalytic subunit alpha-2 (Homo sapiens) (P54646 whole entry, looked up): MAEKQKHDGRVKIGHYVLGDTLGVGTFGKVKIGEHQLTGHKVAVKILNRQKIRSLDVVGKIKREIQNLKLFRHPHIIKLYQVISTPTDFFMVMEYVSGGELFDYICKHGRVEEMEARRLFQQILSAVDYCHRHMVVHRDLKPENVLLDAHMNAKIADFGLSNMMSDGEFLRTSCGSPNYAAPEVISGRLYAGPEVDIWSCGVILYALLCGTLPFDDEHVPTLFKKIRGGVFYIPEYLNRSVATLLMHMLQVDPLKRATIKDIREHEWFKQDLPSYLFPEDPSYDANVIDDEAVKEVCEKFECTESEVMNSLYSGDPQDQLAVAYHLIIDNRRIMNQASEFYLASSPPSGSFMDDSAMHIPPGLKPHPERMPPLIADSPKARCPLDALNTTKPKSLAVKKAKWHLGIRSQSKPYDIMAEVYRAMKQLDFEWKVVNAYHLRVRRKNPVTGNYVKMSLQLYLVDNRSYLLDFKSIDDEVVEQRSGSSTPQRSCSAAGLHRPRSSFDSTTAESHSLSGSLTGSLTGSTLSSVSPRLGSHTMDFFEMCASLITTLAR
# Chain of Mitogen-activated protein kinase 9 (P45984 whole entry, looked up): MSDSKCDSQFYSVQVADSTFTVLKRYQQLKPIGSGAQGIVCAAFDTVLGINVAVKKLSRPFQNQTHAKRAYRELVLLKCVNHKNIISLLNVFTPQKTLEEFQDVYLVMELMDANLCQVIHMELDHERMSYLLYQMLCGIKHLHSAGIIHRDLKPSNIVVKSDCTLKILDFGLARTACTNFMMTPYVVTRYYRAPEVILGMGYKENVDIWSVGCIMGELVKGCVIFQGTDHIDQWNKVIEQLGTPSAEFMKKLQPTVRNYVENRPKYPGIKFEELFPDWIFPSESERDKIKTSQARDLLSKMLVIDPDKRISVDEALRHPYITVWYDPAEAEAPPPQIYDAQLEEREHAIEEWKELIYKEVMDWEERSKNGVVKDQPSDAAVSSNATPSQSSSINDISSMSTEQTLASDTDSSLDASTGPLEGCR
# Chain of Serine/threonine-protein kinase 38-like (Homo sapiens) (Q9Y2H1 2-464 limits assumed): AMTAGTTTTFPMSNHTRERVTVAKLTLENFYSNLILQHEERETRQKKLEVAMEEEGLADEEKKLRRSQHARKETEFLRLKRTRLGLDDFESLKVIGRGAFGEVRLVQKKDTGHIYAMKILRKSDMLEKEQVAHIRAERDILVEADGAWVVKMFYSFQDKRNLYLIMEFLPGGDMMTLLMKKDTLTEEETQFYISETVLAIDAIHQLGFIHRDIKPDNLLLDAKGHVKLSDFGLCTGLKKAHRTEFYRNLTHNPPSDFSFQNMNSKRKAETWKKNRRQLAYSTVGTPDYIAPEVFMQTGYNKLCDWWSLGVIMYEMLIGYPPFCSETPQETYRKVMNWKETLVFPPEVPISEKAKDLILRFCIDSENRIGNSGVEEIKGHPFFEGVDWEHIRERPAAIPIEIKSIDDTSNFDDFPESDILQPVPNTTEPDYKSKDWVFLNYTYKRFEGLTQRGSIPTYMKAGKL
# Chain of Serine/threonine-protein kinase PLK3 (Q9H4B4 whole entry, looked up): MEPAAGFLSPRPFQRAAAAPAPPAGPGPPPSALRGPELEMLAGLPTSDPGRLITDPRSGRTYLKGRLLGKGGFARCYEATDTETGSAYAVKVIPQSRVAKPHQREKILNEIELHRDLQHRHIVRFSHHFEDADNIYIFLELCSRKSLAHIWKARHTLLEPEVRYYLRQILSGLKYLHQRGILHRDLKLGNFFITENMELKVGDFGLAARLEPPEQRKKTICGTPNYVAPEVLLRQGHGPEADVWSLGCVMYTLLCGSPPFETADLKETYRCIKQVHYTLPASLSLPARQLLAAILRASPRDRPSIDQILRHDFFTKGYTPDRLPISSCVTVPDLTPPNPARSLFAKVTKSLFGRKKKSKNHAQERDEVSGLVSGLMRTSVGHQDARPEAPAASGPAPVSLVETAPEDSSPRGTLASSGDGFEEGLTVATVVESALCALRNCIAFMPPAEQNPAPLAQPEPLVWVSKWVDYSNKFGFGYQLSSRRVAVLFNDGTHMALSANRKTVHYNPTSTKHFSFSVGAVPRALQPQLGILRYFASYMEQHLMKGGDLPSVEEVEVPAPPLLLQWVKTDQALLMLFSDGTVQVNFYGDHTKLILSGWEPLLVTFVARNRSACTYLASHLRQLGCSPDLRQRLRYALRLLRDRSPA
# Chain of Epidermal growth factor receptor (Homo sapiens), P00533 [L861Q] (P00533 whole entry L861Q): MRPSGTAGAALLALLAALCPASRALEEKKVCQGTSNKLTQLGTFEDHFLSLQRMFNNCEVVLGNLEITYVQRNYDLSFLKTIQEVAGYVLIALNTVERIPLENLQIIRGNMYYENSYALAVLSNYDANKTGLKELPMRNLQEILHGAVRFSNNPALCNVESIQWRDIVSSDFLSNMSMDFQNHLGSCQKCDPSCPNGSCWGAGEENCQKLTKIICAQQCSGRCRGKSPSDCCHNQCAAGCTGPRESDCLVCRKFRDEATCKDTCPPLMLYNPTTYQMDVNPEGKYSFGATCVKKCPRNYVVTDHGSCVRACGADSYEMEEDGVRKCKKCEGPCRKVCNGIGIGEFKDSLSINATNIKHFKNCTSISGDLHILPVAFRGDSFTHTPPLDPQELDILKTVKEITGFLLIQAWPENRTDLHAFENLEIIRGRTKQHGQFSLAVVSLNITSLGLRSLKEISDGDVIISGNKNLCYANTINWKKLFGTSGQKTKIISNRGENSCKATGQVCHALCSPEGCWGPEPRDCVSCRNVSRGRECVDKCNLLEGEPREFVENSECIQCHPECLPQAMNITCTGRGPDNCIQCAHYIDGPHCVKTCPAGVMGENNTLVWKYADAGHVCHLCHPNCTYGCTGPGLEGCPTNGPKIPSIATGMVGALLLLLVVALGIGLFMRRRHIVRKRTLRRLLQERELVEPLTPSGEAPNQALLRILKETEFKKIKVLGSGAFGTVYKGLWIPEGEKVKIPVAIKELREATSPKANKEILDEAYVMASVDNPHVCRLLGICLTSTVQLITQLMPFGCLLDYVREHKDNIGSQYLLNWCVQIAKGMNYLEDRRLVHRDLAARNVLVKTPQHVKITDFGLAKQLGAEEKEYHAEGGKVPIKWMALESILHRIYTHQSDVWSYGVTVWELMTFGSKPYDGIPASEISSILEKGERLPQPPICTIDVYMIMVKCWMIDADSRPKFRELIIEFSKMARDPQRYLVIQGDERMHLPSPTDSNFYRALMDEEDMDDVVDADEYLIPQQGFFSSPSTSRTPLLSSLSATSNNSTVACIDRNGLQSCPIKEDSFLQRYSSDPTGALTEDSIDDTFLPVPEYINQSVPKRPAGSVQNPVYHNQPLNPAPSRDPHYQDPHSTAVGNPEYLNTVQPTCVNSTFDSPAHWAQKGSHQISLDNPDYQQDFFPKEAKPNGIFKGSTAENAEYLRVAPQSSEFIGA
# Chain of Serine/threonine-protein kinase 24 (Homo sapiens) (Q9Y6E0 whole entry, looked up): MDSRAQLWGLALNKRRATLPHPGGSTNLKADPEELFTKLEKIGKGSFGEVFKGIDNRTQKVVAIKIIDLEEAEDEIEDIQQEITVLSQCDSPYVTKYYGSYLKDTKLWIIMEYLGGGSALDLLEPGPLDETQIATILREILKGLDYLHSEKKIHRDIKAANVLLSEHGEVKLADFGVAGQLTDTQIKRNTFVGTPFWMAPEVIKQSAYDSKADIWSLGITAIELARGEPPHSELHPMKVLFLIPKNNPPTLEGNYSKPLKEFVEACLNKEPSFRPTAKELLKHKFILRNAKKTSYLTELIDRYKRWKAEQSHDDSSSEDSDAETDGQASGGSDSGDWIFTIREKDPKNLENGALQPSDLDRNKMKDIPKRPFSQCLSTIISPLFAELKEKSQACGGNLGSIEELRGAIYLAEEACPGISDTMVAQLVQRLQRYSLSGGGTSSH
# Chain of Aurora kinase B (Q96GD4 whole entry): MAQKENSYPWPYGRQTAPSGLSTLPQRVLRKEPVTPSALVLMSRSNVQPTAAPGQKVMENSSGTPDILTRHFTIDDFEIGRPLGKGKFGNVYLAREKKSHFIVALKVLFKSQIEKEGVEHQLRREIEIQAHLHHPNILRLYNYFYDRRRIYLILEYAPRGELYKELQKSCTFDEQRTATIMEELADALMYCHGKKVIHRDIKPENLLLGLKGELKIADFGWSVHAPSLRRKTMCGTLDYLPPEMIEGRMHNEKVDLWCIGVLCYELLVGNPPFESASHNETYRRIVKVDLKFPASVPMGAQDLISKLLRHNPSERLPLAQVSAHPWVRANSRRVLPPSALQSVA
# Chain of Fibroblast growth factor receptor 1 (P11362 22-822 limits assumed): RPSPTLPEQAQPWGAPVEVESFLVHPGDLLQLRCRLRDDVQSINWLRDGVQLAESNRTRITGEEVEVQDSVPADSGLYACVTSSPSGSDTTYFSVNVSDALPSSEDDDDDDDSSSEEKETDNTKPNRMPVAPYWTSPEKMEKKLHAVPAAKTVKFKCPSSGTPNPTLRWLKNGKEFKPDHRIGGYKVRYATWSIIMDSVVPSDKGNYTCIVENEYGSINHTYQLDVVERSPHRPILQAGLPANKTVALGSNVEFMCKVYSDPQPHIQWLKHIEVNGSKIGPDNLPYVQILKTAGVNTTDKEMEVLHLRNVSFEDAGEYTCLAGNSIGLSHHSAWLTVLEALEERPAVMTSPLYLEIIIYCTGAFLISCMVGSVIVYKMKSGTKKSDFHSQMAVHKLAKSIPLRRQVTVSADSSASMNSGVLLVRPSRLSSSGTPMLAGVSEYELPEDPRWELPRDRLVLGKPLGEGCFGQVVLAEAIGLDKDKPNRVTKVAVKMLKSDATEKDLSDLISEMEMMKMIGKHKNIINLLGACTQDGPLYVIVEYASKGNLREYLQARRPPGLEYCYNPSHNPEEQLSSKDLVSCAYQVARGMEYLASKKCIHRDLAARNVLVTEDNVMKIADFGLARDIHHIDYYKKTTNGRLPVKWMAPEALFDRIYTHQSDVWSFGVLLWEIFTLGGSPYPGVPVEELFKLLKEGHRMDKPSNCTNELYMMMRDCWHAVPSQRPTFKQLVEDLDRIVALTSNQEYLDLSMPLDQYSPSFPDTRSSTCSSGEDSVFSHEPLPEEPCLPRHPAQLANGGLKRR
smiles,measurement,setting,value
Nc1cnc(N2CCc3cc(S(=O)(=O)Nc4c(F)cc(Cl)cc4F)cc(N4CCCC4=O)c32)nc1 [TP-020n],% of control,[1],100%
same,% of control,[2],100%
same,% of control,[3],100%
same,% of control,[4],99%
same,% of control,[5],85%
same,% of control,[6],100%
Cc1cc([C@@H](C)Nc2ccccc2C(=O)O)c2nc(N3CCOCC3)cc(=O)n2c1 [AZD-6482],% of control,[7],100%
COc1cc(Nc2nc(C)cc(-c3cnn4nc(OC)ccc34)n2)cc(C(F)(F)F)c1,% of control,[8],72%
same,% of control,[9],98%
N#Cc1cccc(-c2c[nH]c3ncnc(N4CCOCC4)c23)c1,% of control,[10],87%
CC(C)(O)[C@H](F)CN1Cc2cc(NC(=O)c3cnn4cccnc34)c(N3CCOCC3)cc2C1=O,dTM,[11],0.3 K
O[C@H]1CC[C@H](Nc2ncc3nc(Nc4c(F)cc(F)cc4F)n([C@H]4CCOC4)c3n2)CC1,% of control,[12],100%
CC[C@@H]1[C@H](F)C(=O)N[C@@H]1COc1nccc2cc(C(N)=O)c(OC)cc12 [ZIMLOVISERTIB],% of inhibition,[13]; at 0.01 µM,16%
same,% of inhibition,[13]; at 0.04 µM,21.7%
same,% of inhibition,[13]; at 0.2 µM,11.2%
same,% of inhibition,[13]; at 1 µM,11.8%
same,% of inhibition,[13]; at 5 µM,28.8%
CCC(=O)N1CCN(c2ccc(-n3c(=O)ccc4cnc5ccc(-c6cnc7ccccc7c6)cc5c43)cc2C(F)(F)F)CC1,% of control,[14],84%
same,% of control,[15],100%
CN(C)C/C=C/C(=O)Nc1ccc(C(=O)N2CCCC(Nc3ncc(Cl)c(-c4c[nH]c5ccccc45)n3)C2)cc1 (stereo unspecified),% of control,[16],100%
same,% of control,[17],88%
